Measurements published in patent US7368115B2, “Method of enhancing neural stem cell proliferation, differentiation, and survival using pituitary adenylate cyclase activating polypeptide (PACAP)” (Stem Cell Therapeutics Inc., priority 2002, dated 2008).

Key:
[1] = test system: E14 ganglionic eminence neural stem cells; assay: Primary neurosphere number from dissociated E14 ganglionic eminences (neural stem cell survival); format: cell-based, mouse
From the text: FIG. 1. Pituitary adenylate cyclase-activating polypeptide (PACAP) enhanced neural stem cell survival in vitro. Embryonic day 14 ganglionic eminences (E14 GE) were dissociated and plated at 150 cells/ml in the indicated growth factor conditions. The number of neurospheres was counted after 10 days. Data are expressed relative to the number obtained with epidermal growth factor (EGF) alone (100%). PACAP increased the number of neurospheres obtained with either EGF or fibroblast growth factor (FGF)+heparan sulfate (HS). […] (* p<0.05, n=3).
Cell Culture: Primary embryonic neural stem cells were isolated from E14 ganglionic eminence as previously described (Reynolds and Weiss, 1992). Neurospheres were grown in the presence of EGF (20 ng/ml) or FGF-2 (20 ng/ml)+heparan sulfate (2 μg/ml) growth medium. Passaged neural stem cells were grown at a clonal density (150 cells/ml).
E14 GE were dissociated and plated at 150 cells/ml in EGF, EGF+PACAP, FGF+HS, or FGF+HS+PACAP. The number of neurospheres were counted after 10 days.

[2] = Banks, 1993; cited from earlier work
primary E14 neurospheres [3] = assay: In vitro neurogenesis: count of β-tubulin immunopositive neurons from neurospheres; format: cell-based, mouse
Description: FIG. 3. PACAP enhanced in vitro neurogenesis by neural stem cells. Primary E14 neurospheres were grown in the indicated conditions for seven days and then processed for immunocytochemistry to count the number of B-tubulin immunopositive neurons. Data were normalized to either EGF or FGF+HS alone (100%). PACAP increased the number of neurons in all conditions. (* p<0.01, n=3).
Differentiation of Neurospheres: Neurospheres were plated onto poly-L-ornithine coated coverslips in serum-free medium and subjected to immunocytochemistry after 5 days in vitro. The number of β-III tubulin-positive cells were counted.
Primary E14 neurospheres were grown in either EGF or FGF media in the presence or absence of PACAP for seven days, differentiated for five days in vitro in basal media, and then processed for immunocytochemistry to determine the number of β-tubulin immunopositive neurons. Data were normalized to those obtained with either EGF or FGF+HS alone (100%).

primary E14 neurospheres [4] = assay: Secondary neurosphere number from dissociated primary neurospheres (self-renewal); format: cell-based, mouse; settings: primary neurospheres grown with PACAP, replated in EGF or FGF+HS; normalized to growth without PACAP
Description: FIG. 2. PACAP increased neural stem cell self-renewal in vitro. Primary E14 neurospheres were grown in the indicated conditions, dissociated, and replated in the presence of either EGF or FGF+HS. Neurospheres were counted and data were normalized to either EGF or FGF+HS alone. PACAP increased the number of secondary neurospheres obtained with either EGF or FGF+HS. (* p<0.05, n=3).
Single Cell Dissociation Assay: Single neurospheres ([…]) were dissociated mechanically and then plated in a 96 well plate and incubated for 10 days in vitro in the presence of growth factors.
Primary E14 neurospheres were grown in the indicated conditions in FIG. 2, then dissociated and replated in the presence of either EGF or FGF+HS and the number of secondary neurospheres was counted. Data were normalized to the numbers of secondary neurospheres generated from primary neurospheres grown in the absence of PACAP.

STAT5 = STAT5 phosphorylation in cultured neural stem cells (Western blot); format: cell-based; settings: data not shown
Description: (§1) To examine the possible mechanisms of PACAP action on neural stem cells, the effects of PACAP on Akt and STAT5 phosphorylation were investigated. Immunoblots were performed with anti-STAT5 (1:1000, Santa Cruz Biotechnology), anti-phospho-STAT5 (1:1000; Cell Signaling Technology), anti-Akt and anti-phospho-Akt (1:1000; Cell Signaling Technology). […] PACAP also stimulated STAT5 phosphorylation, which was previously shown to be important in neural stem cell neurogenesis. The effects of PACAP on Akt and STAT5 phosphorylation may be critical in mediating actions on neural stem cell survival and neurogenesis.

[5] = test system: embryonic rat cortical precursors; settings: Lu and DiCicco-Bloom, 1997; cited from earlier work
Akt = Akt phosphorylation in cultured neural stem cells (Western blot); format: cell-based; settings: within 1 to 2 hours, data not shown
Description: as §1

[6] = test system: adult forebrain subventricular zone (SVZ); assay: In vivo proliferation in the adult subventricular zone (BrdU+ cells) after infusion into the lateral ventricle; design: species or system CD-1 mice; settings: human PACAP 165 μg/ml by osmotic minipump into right lateral ventricle for 6 days; relative to vehicle infused animals
From the text: FIG. 4. PACAP infusion stimulated increased proliferation in the adult subventricular zone (SVZ) in vivo. PACAP was infused into the lateral ventricles for six days with an osmotic minipump, followed by a series of BrdU injections. Brains were processed for immunocytochemistry. PACAP increased proliferation in the adult SVZ. (** p<0.05, n=4). […] To examine the actions of the peptide in vivo, CD-1 mice (6–7 weeks of age) were implanted with osmotic minipumps (Alzet 1007D) filled with either human PACAP (American Peptide Company, 165 μg/ml) or vehicle alone (0.9% saline containing 1 mg/ml mouse serum albumin). The cannulae were placed in the right lateral ventricle. Each animal was infused for 6 days and injected with BrdU every two hours for ten hours and killed 0.5 hours after the last injection. Brains were processed for immunohistochemistry as described previously (Shingo et al., 2001) and BrdU+cells were counted in serial sections of the SVZ.

**Q.** Which “number of primary neurospheres generated in response to EGF” value ([1]; EGF+PACAP vs EGF, 150 cells/ml, counted after 10 days, lesser extent than with FGF-2) does the source give for “PACAP: polypeptide hormone that activates adenylate cyclase; native mammalian form is 38 or 27 amino acids; human PACAP from American Peptide Company used in vivo” here?
**A.** Its value is “also increased”.

**Q.** What about the “number of primary neurospheres generated in response to FGF-2” value ([1]; FGF+HS+PACAP vs FGF+HS, 150 cells/ml, counted after 10 days, PACAP added at beginning of culture) of the same substance?
**A.** Its value is “significantly increased”.

**Q.** What about the “neurosphere number with delayed addition of PACAP” value ([1]; PACAP addition delayed until 5 days in vitro) of the same substance?
**A.** The value was “did not increase”.

**Q.** What about the “crossing of the blood-brain-barrier” value [2] of the same substance?
**A.** The value was “known to cross the blood-brain-barrier”.

**Q.** And the “number of β-tubulin immunopositive neurons generated” value (primary E14 neurospheres [3]; EGF or FGF media with PACAP for seven days, differentiated five days in vitro, normalized to EGF or FGF+HS alone (100%))?
**A.** The value was “significantly increased”.

**Q.** And the “number of neurons generated with delayed PACAP addition” value (primary E14 neurospheres [3]; PACAP addition delayed until after five days in vitro (PACAP at 5 DIV))?
**A.** The value was “an increase was observed”.

**Q.** And the “number of secondary neurospheres generated by single primary neurospheres” value (primary E14 neurospheres [4])?
**A.** The value was “significantly increased”.

**Q.** What about the STAT5 phosphorylation (STAT5) of the same substance?
**A.** The STAT5 phosphorylation was “stimulated”.

**Q.** And the mitosis [5]?
**A.** Its mitosis is “can decrease mitosis”.

**Q.** And the “phosphorylation of Akt” value (Akt)?
**A.** The value was “rapid increase”.

**Q.** And the “number of BrdU incorporating cells in the SVZ” value [6]?
**A.** Its value is “significantly increased”.
